Data as given in ChEMBL document CHEMBL1201862, “PubChem BioAssay data set” (2004).
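Grown in 96-well plates, cells were treated for 48 hours with each compound at five concentrations. Insufficient inhibition: endpoint recorded as highest concentration tested. The concentration for 50% growth inhibition is given as GI50.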 Active and inactive are the calls of the source. No stated cut-off is given here; in the data, active = GI50 up to about 1.1 µM and inactive = higher.

Legend:
Test in all cases: NCI anticancer screen, dose series, 48 h
[1] = test system: IGROV-1
[2] = test system: MOLT-4
[3] = test system: HL-60
[4] = test system: HT-29
[5] = test system: PC-3
[6] = test system: RXF 393
[7] = test system: SN12C
[8] = test system: SK-OV-3
[9] = test system: SR
[10] = test system: SF-295
[11] = test system: HOP-92
[12] = test system: UO-31
[13] = test system: U-251
[14] = test system: CCRF-CEM
[15] = test system: HCC 2998
[16] = test system: SK-MEL-5
[17] = test system: MDA-MB-231
[18] = test system: UACC-257
[19] = test system: RPMI-8226
[20] = test system: NCI-H226

Compound | GI50 [1] | GI50 [2] | GI50 [3] | GI50 [4] | GI50 [5] | GI50 [6] | GI50 [7] | GI50 [8] | GI50 [9] | GI50 [10] | GI50 [11] | GI50 [12] | GI50 [13] | GI50 [14] | GI50 [15] | GI50 [16] | GI50 [17] | GI50 [18] | GI50 [19] | GI50 [20]
NC(=O)C(NC=O)c1ccccc1 (stereo not given) | > 100 µM (inactive) | > 100 µM (inactive) | > 100 µM (inactive) | > 100 µM (inactive) | > 100 µM (inactive) | > 100 µM (inactive) | > 100 µM (inactive) | > 100 µM (inactive) | > 100 µM (inactive) | > 100 µM (inactive) | > 100 µM (inactive) | > 100 µM (inactive) | > 100 µM (inactive) | > 100 µM (inactive) | > 100 µM (inactive) | > 100 µM (inactive) | > 100 µM (inactive) | > 100 µM (inactive) | – | –
Clc1cc(Cl)c2cc3cccc[n+]3cc2c1Cl | – | 14 µM (inactive) | 12.7 µM (inactive) | 15.5 µM (inactive) | 14 µM (inactive) | – | 17.9 µM (inactive) | 16.6 µM (inactive) | 12.2 µM (inactive) | 18 µM (inactive) | 5.87 µM (inactive) | 15.1 µM (inactive) | 16.7 µM (inactive) | 12.1 µM (inactive) | 17.1 µM (inactive) | 16 µM (inactive) | 17.9 µM (inactive) | 15.2 µM (inactive) | 16.4 µM (inactive) | 16.4 µM (inactive)
CSc1ccc2c(c1)N(CCCN(C)C)c1ccccc1S2 | 13.2 µM (inactive) | 5.81 µM (inactive) | 12 µM (inactive) | 6.78 µM (inactive) | 11.1 µM (inactive) | 7.55 µM (inactive) | 13.1 µM (inactive) | 15.1 µM (inactive) | 6.19 µM (inactive) | 12.8 µM (inactive) | 11.7 µM (inactive) | – | 13.5 µM (inactive) | 5.89 µM (inactive) | – | 11.4 µM (inactive) | 12.7 µM (inactive) | 7.16 µM (inactive) | 12.2 µM (inactive) | 19.8 µM (inactive)
COc1ccc(N2C(=O)/C(=C\c3cccc(Oc4ccccc4)c3)S(=O)(=O)C2c2ccccc2)cc1 (stereo not given) | – | 0.146 µM (active) | 7.24 µM (inactive) | – | 56 µM (inactive) | 17.1 µM (inactive) | 66.4 µM (inactive) | – | 3.7 µM (inactive) | – | 42.2 µM (inactive) | 53.6 µM (inactive) | 50.7 µM (inactive) | 73.6 µM (inactive) | > 100 µM (inactive) | 16.3 µM (inactive) | 85.1 µM (inactive) | 26.1 µM (inactive) | – | 64.7 µM (inactive)
O=C(OCCN=C1c2ccccc2CCc2ccccc21)c1cc([N+](=O)[O-])cc([N+](=O)[O-])c1 | 28.2 µM (inactive) | 4.22 µM (inactive) | 25.7 µM (inactive) | > 31.6 µM (inactive) | > 31.6 µM (inactive) | > 31.6 µM (inactive) | > 31.6 µM (inactive) | > 100 µM (inactive) | 3.52 µM (inactive) | 23.6 µM (inactive) | > 31.6 µM (inactive) | 21.9 µM (inactive) | > 100 µM (inactive) | 74.6 µM (inactive) | – | 27.2 µM (inactive) | > 31.6 µM (inactive) | > 31.6 µM (inactive) | 5.09 µM (inactive) | > 31.6 µM (inactive)
CCN1CC2(COC)C(O)CC(OC)C34C5CC6(O)C(OC)C=C(C5C6OC(=O)c5ccc(OC)c(OC)c5)C(C(OC)C23)C14 (stereo not given) | > 7.5 µM (inactive) | – | > 7.5 µM (inactive) | > 7.5 µM (inactive) | > 7.5 µM (inactive) | – | > 7.5 µM (inactive) | > 7.5 µM (inactive) | > 7.5 µM (inactive) | > 7.5 µM (inactive) | > 7.5 µM (inactive) | > 7.5 µM (inactive) | > 7.5 µM (inactive) | > 7.5 µM (inactive) | > 7.5 µM (inactive) | > 7.5 µM (inactive) | > 7.5 µM (inactive) | > 7.5 µM (inactive) | – | > 7.5 µM (inactive)
c1ccc(Cc2cccc3cc(-c4ccc(-c5ccccc5)cc4)[nH]c23)cc1 | > 100 µM (inactive) | > 100 µM (inactive) | > 100 µM (inactive) | > 100 µM (inactive) | 61.9 µM (inactive) | – | 96.6 µM (inactive) | > 100 µM (inactive) | 16.9 µM (inactive) | > 100 µM (inactive) | > 100 µM (inactive) | > 100 µM (inactive) | 70.6 µM (inactive) | 30.1 µM (inactive) | 95.1 µM (inactive) | > 100 µM (inactive) | 99.5 µM (inactive) | > 100 µM (inactive) | 71.4 µM (inactive) | > 100 µM (inactive)
COc1ncnc2c1cnn2Cc1cn(COCC(O)CO)nn1 (stereo not given) | > 100 µM (inactive) | > 100 µM (inactive) | > 100 µM (inactive) | > 100 µM (inactive) | > 100 µM (inactive) | – | > 100 µM (inactive) | > 100 µM (inactive) | > 100 µM (inactive) | > 100 µM (inactive) | 22.8 µM (inactive) | > 100 µM (inactive) | > 100 µM (inactive) | > 100 µM (inactive) | > 100 µM (inactive) | > 100 µM (inactive) | > 100 µM (inactive) | > 100 µM (inactive) | > 100 µM (inactive) | > 100 µM (inactive)
CC1CCC(C(C)C)C(OC(=O)NCn2cc(-c3ccccc3)nn2)C1 (stereo not given) | > 100 µM (inactive) | – | > 100 µM (inactive) | > 100 µM (inactive) | > 100 µM (inactive) | – | > 100 µM (inactive) | – | > 100 µM (inactive) | > 100 µM (inactive) | > 100 µM (inactive) | – | > 100 µM (inactive) | > 100 µM (inactive) | 85.1 µM (inactive) | > 100 µM (inactive) | > 100 µM (inactive) | > 100 µM (inactive) | > 100 µM (inactive) | 75.2 µM (inactive)
Cc1nnc2n1-c1ccccc1-c1[nH]c3ccccc3c1C2 | 70 µM (inactive) | 45 µM (inactive) | 21.2 µM (inactive) | 68.2 µM (inactive) | 46.1 µM (inactive) | 44.1 µM (inactive) | > 100 µM (inactive) | > 100 µM (inactive) | 22.8 µM (inactive) | 56.1 µM (inactive) | 93.8 µM (inactive) | 28.8 µM (inactive) | – | 53.8 µM (inactive) | – | 26.2 µM (inactive) | 58.5 µM (inactive) | 59.8 µM (inactive) | 32.2 µM (inactive) | > 100 µM (inactive)
Nc1ncnc2ccc(Sc3ccc4ncnc(N)c4c3)cc12 | > 100 µM (inactive) | > 100 µM (inactive) | > 100 µM (inactive) | > 100 µM (inactive) | > 100 µM (inactive) | > 100 µM (inactive) | > 100 µM (inactive) | > 100 µM (inactive) | > 100 µM (inactive) | > 100 µM (inactive) | 71.3 µM (inactive) | > 100 µM (inactive) | > 100 µM (inactive) | > 100 µM (inactive) | – | > 100 µM (inactive) | > 100 µM (inactive) | > 100 µM (inactive) | > 100 µM (inactive) | > 100 µM (inactive)
OC(c1cc2ccc(C(F)(F)F)cc2c2cc(C(F)(F)F)ccc12)C1CCCCN1 (stereo not given) | 1.74 µM (inactive) | 1.41 µM (inactive) | 31.4 µM (inactive) | 2.07 µM (inactive) | 1.58 µM (inactive) | – | 1.74 µM (inactive) | 2.36 µM (inactive) | 2.38 µM (inactive) | – | 1.74 µM (inactive) | 1.41 µM (inactive) | 1.71 µM (inactive) | 1.78 µM (inactive) | 1.3 µM (inactive) | 1.56 µM (inactive) | 1.73 µM (inactive) | 1.56 µM (inactive) | 2.17 µM (inactive) | –
O=C1c2ccccc2-c2nc(-c3cccs3)cc3c2c1nc1ccccc13 | 12.4 µM (inactive) | 37.1 µM (inactive) | 5.42 µM (inactive) | 21.5 µM (inactive) | 12.6 µM (inactive) | – | > 100 µM (inactive) | > 100 µM (inactive) | 6.21 µM (inactive) | 27.8 µM (inactive) | > 100 µM (inactive) | 22.7 µM (inactive) | 18.6 µM (inactive) | 22.3 µM (inactive) | 16.7 µM (inactive) | – | 58.3 µM (inactive) | 14.1 µM (inactive) | 23.2 µM (inactive) | 47.8 µM (inactive)
NC(=O)CN1CC(C2=C(O)CN(CC(N)=O)C2=O)=CC1=O | > 100 µM (inactive) | > 100 µM (inactive) | > 100 µM (inactive) | > 100 µM (inactive) | > 100 µM (inactive) | – | > 100 µM (inactive) | > 100 µM (inactive) | > 100 µM (inactive) | > 100 µM (inactive) | > 100 µM (inactive) | 85.7 µM (inactive) | > 100 µM (inactive) | > 100 µM (inactive) | > 100 µM (inactive) | > 100 µM (inactive) | > 100 µM (inactive) | > 100 µM (inactive) | > 100 µM (inactive) | > 100 µM (inactive)
NC(=O)N/N=C1\CCCCc2ccccc21 | – | > 10 µM (inactive) | – | > 10 µM (inactive) | > 10 µM (inactive) | > 10 µM (inactive) | > 10 µM (inactive) | – | > 10 µM (inactive) | – | > 10 µM (inactive) | > 10 µM (inactive) | > 10 µM (inactive) | > 10 µM (inactive) | > 10 µM (inactive) | – | > 10 µM (inactive) | > 10 µM (inactive) | > 10 µM (inactive) | > 10 µM (inactive)
